Measurements: ChEMBL document CHEMBL5385913, “First-in-Class Dual EZH2-HSP90 Inhibitor Eliciting Striking Antiglioblastoma Activity In Vitro and In Vivo” (J Med Chem, 2024)
Calls of active or inactive are those of the source. The rule behind the calls is not given here.

Experiments:
GBM [1] = assay: Downregulation of spindle-related gene expression in TMZ-resistant patient-derived human GBM cells; type: functional, cell-based
[2] = Downregulation of CENPU level in TMZ-resistant patient-derived human GBM cells assessed as fold change at 2 uM by GlioVis analysis (reference value: 3.88); type: functional
GBM [3] = assay: Induction of ROS production in patient-derived human GBM cells assessed as decrease in GPX1 level upto 10 uM measured after 48 hrs by Western blot analysis; type: functional, cell-based
GBM [4] = assay: Effect on homologous recombination in TMZ-resistant patient-derived human GBM cells assessed as fold decrease in MSH5 gene expression at 2 uM (reference value: 1.52); type: functional
[5] = Downregulation of CENPO level in TMZ-resistant patient-derived human GBM cells assessed as fold change at 2 uM by GlioVis analysis (reference value: 3.12); type: functional
GBM [6] = assay: Upregulation of SERPINE1 gene expression in TMZ-resistant patient-derived human GBM cells by KEGG analysis; type: functional, cell-based
GBM [7] = assay: Upregulation of ACTB gene expression in TMZ-resistant patient-derived human GBM cells by KEGG analysis; type: functional, cell-based
[8] = Downregulation of CENPW level in TMZ-resistant patient-derived human GBM cells assessed as fold change at 2 uM by GlioVis analysis (reference value: 2.83); type: functional
[9] = Downregulation of NASP level in TMZ-resistant patient-derived human GBM cells assessed as fold change at 2 uM by GlioVis analysis (reference value: 5.08); type: functional
GBM [10] = assay: Suppression of DNA repair in TMZ-resistant patient-derived human GBM cells by GSEA analysis; type: functional, cell-based
GBM [11] = assay: Downregulation of CENPA level in TMZ-resistant patient-derived human GBM cells upto 5 uM incubated for 48 to 72 hrs by Western blot analysis; type: functional, cell-based; conditions: time 48-72 hrs
GBM [12] = assay: Upregulation of HSP90AA1 gene expression in TMZ-resistant patient-derived human GBM cells by KEGG analysis; type: functional, cell-based
[13] = target: Histone-lysine N-methyltransferase EZH2 (Homo sapiens) (UniProt Q15910); assay: Inhibition of EZH2 in patient-derived human GBM cells upto 10 uM measured after 48 hrs by Western blot analysis; type: cell-based
Sequence of Histone-lysine N-methyltransferase EZH2 (Homo sapiens) (Q15910 whole entry, looked up): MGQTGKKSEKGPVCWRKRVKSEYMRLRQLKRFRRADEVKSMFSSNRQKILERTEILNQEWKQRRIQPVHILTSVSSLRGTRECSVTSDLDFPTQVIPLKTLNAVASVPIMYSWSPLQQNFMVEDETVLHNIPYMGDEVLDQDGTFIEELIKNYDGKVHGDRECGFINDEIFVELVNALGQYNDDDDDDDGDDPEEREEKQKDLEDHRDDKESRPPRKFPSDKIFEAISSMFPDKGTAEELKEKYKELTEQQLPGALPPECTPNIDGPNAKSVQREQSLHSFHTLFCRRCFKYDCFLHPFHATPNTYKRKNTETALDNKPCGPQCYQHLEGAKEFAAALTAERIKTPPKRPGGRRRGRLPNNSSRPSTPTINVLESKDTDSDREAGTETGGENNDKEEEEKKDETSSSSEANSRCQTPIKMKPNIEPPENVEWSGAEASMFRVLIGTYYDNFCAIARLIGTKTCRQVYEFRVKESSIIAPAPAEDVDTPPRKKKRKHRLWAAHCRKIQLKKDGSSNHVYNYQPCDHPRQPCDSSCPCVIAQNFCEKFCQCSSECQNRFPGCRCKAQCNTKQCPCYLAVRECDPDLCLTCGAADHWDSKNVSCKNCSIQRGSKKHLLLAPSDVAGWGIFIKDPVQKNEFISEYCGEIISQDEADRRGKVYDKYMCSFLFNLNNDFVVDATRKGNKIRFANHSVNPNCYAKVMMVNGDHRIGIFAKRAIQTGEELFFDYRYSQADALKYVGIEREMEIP

GBM [14] = assay: Induction of ROS production in TMZ-resistant patient-derived human GBM cells assessed as decrease in SOD1 level upto 10 uM measured after 48 hrs by Western blot analysis; type: functional, cell-based
GBM [15] = assay: Upregulation of HSPH gene expression in TMZ-resistant patient-derived human GBM cells by KEGG analysis; type: functional, cell-based
GBM [16] = assay: Downregulation of RPL35 gene expression in TMZ-resistant patient-derived human GBM cells by KEGG analysis; type: functional, cell-based
GBM [17] = assay: Upregulation of necrosis-related gene expression in TMZ-resistant patient-derived human GBM cells; type: functional, cell-based
[18] = Downregulation of CENPA level in TMZ-resistant patient-derived human GBM cells assessed as fold change at 2 uM by GlioVis analysis (reference value: 3.64); type: functional
GBM [19] = assay: Downregulation of M phase-related gene expression in TMZ-resistant patient-derived human GBM cells; type: functional, cell-based
[20] = target: Histone-lysine N-methyltransferase EZH2 (Homo sapiens) (UniProt Q15910); assay: Inhibition of EZH2-mediated H3K27 trimethylation in TMZ-resistant patient-derived human GBM cells upto 10 uM measured after 48 hrs by Western blot analysis; type: cell-based
[21] = Effect on processing DNA double-strand break in TMZ-resistant patient-derived human GBM cells assessed as fold decrease in BLM gene expression at 2 uM (reference value: 3.55); type: functional
GBM [22] = assay: Induction of ROS production in patient-derived human GBM cells measured after 48 hrs by DHR staining based flow cytometry; type: functional, cell-based
[23] = Downregulation of CENPI level in TMZ-resistant patient-derived human GBM cells assessed as fold change at 2 uM by GlioVis analysis (reference value: 3.46); type: functional
GBM [24] = assay: Effect on homologous recombination in TMZ-resistant patient-derived human GBM cells assessed as fold decrease in BLM gene expression at 2 uM (reference value: 3.55); type: functional
[25] = Downregulation of MIS18BP1 level in TMZ-resistant patient-derived human GBM cells assessed as fold change at 2 uM by GlioVis analysis (reference value: 3.87); type: functional
GBM [26] = assay: Downregulation of YWHAG gene expression in TMZ-resistant patient-derived human GBM cells by KEGG analysis; type: functional, cell-based
[27] = target: Histone-lysine N-methyltransferase EZH2 (Homo sapiens) (UniProt Q15910); assay: Inhibition of EZH2 in TMZ-resistant patient-derived human GBM cells upto 10 uM measured after 48 hrs by Western blot analysis; type: cell-based
GBM [28] = assay: Effect on homologous recombination in TMZ-resistant patient-derived human GBM cells assessed as fold decrease in RAD54B gene expression at 2 uM (reference value: 1.74); type: functional
GBM [29] = assay: Downregulation of CENPI level in TMZ-resistant patient-derived human GBM cells upto 5 uM incubated for 48 to 72 hrs by Western blot analysis; type: functional, cell-based; conditions: time 48-72 hrs
GBM [30] = assay: Induction of cell cycle arrest in TMZ-resistant patient-derived human GBM cells at 1 uM incubated for 24 to 72 hrs by PI staining based flow cytometry; type: functional; conditions: time 24-72 hrs
GBM [31] = assay: Effect on homologous recombination in TMZ-resistant patient-derived human GBM cells assessed as fold decrease in FANCM gene expression at 2 uM (reference value: 2.59); type: functional
GBM [32] = assay: Effect on homologous recombination in TMZ-resistant patient-derived human GBM cells assessed as fold decrease in TOP2A gene expression at 2 uM (reference value: 6.78); type: functional
GBM [33] = assay: Downregulation of MCM7 gene expression in TMZ-resistant patient-derived human GBM cells by KEGG analysis; type: functional, cell-based
GBM [34] = assay: Downregulation of CENPE level in TMZ-resistant patient-derived human GBM cells upto 5 uM incubated for 48 to 72 hrs by Western blot analysis; type: functional, cell-based; conditions: time 48-72 hrs
GBM [35] = assay: Downregulation of HNRNPA3 gene expression in TMZ-resistant patient-derived human GBM cells by KEGG analysis; type: functional, cell-based
[36] = Downregulation of OIP5 level in TMZ-resistant patient-derived human GBM cells assessed as fold change at 2 uM by GlioVis analysis (reference value: 2.31); type: functional
GBM [37] = assay: Antitumor activity against TMZ-resistant patient-derived human GBM cells xenografted in NOD.CB17-Prkdcscid/NCrCrl mouse assessed as reduction in tumor growth at 20 mg/kg, ip treated twice per week; type: functional, organism-based
[38] = Downregulation of HELLS level in TMZ-resistant patient-derived human GBM cells assessed as fold change at 2 uM by GlioVis analysis (reference value: 4.19); type: functional
GBM [39] = assay: Upregulation of HSPA1A gene expression in TMZ-resistant patient-derived human GBM cells by KEGG analysis; type: functional, cell-based

**Q.** For `CCN(c1cc(-c2cccc(N(C)C(=O)c3cc(C(C)C)c(O)cc3O)c2)cc(C(=O)NCc2c(C)cc(C)[nH]c2=O)c1C)C1CCOCC1`, which Activity (GBM [1]) is on record?
**A.** Active

**Q.** What about the “fold change (FC)” value [2] of the same compound?
**A.** 1.46

**Q.** What about the Activity (GBM [3]) of the same compound?
**A.** Active

**Q.** And the “fold change (FC)” value (GBM [4])?
**A.** 0.44

**Q.** What about the “fold change (FC)” value [5] of the same compound?
**A.** 1.84

**Q.** And the Activity (GBM [6])?
**A.** Active

**Q.** What about the Activity (GBM [7]) of the same compound?
**A.** Active

**Q.** What about the “fold change (FC)” value [8] of the same compound?
**A.** 0.72

**Q.** And the “fold change (FC)” value [9]?
**A.** 3.41

**Q.** And the Activity (GBM [10])?
**A.** Active

**Q.** What about the Activity (GBM [11]) of the same compound?
**A.** Active

**Q.** What about the Activity (GBM [12]) of the same compound?
**A.** Active

**Q.** And the inhibition [13]?
**A.** Active

**Q.** And the Activity (GBM [14])?
**A.** Active

**Q.** What about the Activity (GBM [15]) of the same compound?
**A.** Active

**Q.** And the Activity (GBM [16])?
**A.** Active

**Q.** What about the Activity (GBM [17]) of the same compound?
**A.** Active

**Q.** What about the “fold change (FC)” value [18] of the same compound?
**A.** 0.81

**Q.** What about the Activity (GBM [19]) of the same compound?
**A.** Active

**Q.** And the inhibition [20]?
**A.** Active

**Q.** And the “fold change (FC)” value [21]?
**A.** 0.72

**Q.** And the Activity (GBM [22])?
**A.** Active

**Q.** And the “fold change (FC)” value [23]?
**A.** 1.14

**Q.** And the “fold change (FC)” value (GBM [24])?
**A.** 0.72

**Q.** What about the “fold change (FC)” value [25] of the same compound?
**A.** 2.43

**Q.** And the Activity (GBM [26])?
**A.** Active

**Q.** What about the inhibition [27] of the same compound?
**A.** Active

**Q.** And the “fold change (FC)” value (GBM [28])?
**A.** 0.83

**Q.** What about the Activity (GBM [29]) of the same compound?
**A.** Active

**Q.** And the Activity (GBM [30])?
**A.** Active

**Q.** And the “fold change (FC)” value (GBM [31])?
**A.** 1.77

**Q.** And the “fold change (FC)” value (GBM [32])?
**A.** 2.68

**Q.** What about the Activity (GBM [33]) of the same compound?
**A.** Active

**Q.** What about the Activity (GBM [34]) of the same compound?
**A.** Active

**Q.** And the Activity (GBM [35])?
**A.** Active

**Q.** And the “fold change (FC)” value [36]?
**A.** 0.66

**Q.** And the Activity (GBM [37])?
**A.** Active

**Q.** And the “fold change (FC)” value [38]?
**A.** 2.37

**Q.** And the Activity (GBM [39])?
**A.** Active
